Measurements published in patent US5698411A, “Method for determining activity of enzymes in metabolically active whole cells” (priority 1995, dated 1997).

Assays:
Assay type in all cases: cell-based, human
lymphocytes [1] = experiment: peptidase activity in leukemia and non-leukemia patients, lymphocytes (Table 6C); set-up: unit not given here
Source text: (§1) Artificial intelligence was used to analyze data of cellular enzyme functions, and determine normal and disease states. Peptidases were used to distinguish leukemia from non-leukemia (output pattern). For input patterns lymphocyte and granulocyte cell types were used with aminopeptidases, cathepsins and dipeptidylpeptidase enzyme activities. In this Example, illustrated in Tables 6A-6C, three normals and three leukemia patients were used as known output patterns for the neural network to learn (in practice, the larger the learning set the more accurate unknown prediction will be). Unknowns were then presented to the learned algorithm as shown in the test case examples. Clinical diagnosis was confirmed by physicians. The trained neural network was able to correctly classify the leukemia from the non-leukemia.

granulocytes [2] = experiment: peptidase activity in leukemia and non-leukemia patients, granulocytes (Table 6C); set-up: unit not given here
Source text: as §1

lymphocytes [3] = experiment: aberrant enzyme activities in febrile children, lymphocytes (Table 7)
monocytes = experiment: aberrant enzyme activities in febrile children, monocytes (Table 7)
granulocytes [4] = experiment: aberrant enzyme activities in febrile children, granulocytes (Table 7)

Compound: NC(=O)CC[C@H](N)C(=O)N[C@@H](CO)C(=O)Nc1ccc2c(c1)Oc1cc(NC(=O)[C@H](CO)NC(=O)[C@@H](N)CCC(N)=O)ccc1C21OC(=O)c2ccccc21 [QS, (H-L-Gln--Ser)2 Rho 110 .2TFA]
- enzyme activity, Lymphs (lymphocytes [1]; J4 11/21/91 acute leuk.): 0.05
- enzyme activity, Lymphs (lymphocytes [1]; J4 12/2/91 A L): 0.01
- enzyme activity, Lymphs (lymphocytes [1]; J4 12/3/91 acute leuk.): 0.06
- enzyme activity, Lymphs (lymphocytes [1]; J5 11/27/91 A M L): 0.07
- enzyme activity, Lymphs (lymphocytes [1]; J19 11/27/91 C L L): 0.06
- enzyme activity, Lymphs (lymphocytes [1]; J22 12/2/91 A M L): 0.02
- enzyme activity, Lymphs (lymphocytes [1]; J22 12/9/91 A M L): 0.02
- enzyme activity, Lymphs (lymphocytes [1]; N191 normal): 0.02
- enzyme activity, Lymphs (lymphocytes [1]; N192 normal): 0.03
- enzyme activity, Lymphs (lymphocytes [1]; N193 normal): 0.03
- enzyme activity, Lymphs (lymphocytes [1]; N194 normal): 0.02
- enzyme activity, Lymphs (lymphocytes [1]; N195 normal): 0.04
- enzyme activity, Lymphs (lymphocytes [1]; N197 normal): 0.06
- enzyme activity, Lymphs (lymphocytes [1]; N199 normal): 0.02
- enzyme activity, Lymphs (lymphocytes [1]; N200 normal): 0.01
- enzyme activity, Lymphs (lymphocytes [1]; N201 normal): 0.02
- enzyme activity, Lymphs (lymphocytes [1]; N202 normal): 0.01
- enzyme activity, Lymphs (lymphocytes [1]; N206 normal): 0.04
- enzyme activity, Lymphs (lymphocytes [1]; P68 tachycardia): 0.02
- enzyme activity, Lymphs (lymphocytes [1]; P69 pancreatic CA): 0.31
- enzyme activity, Lymphs (lymphocytes [1]; P70 cirrhosis/hemobilia): 0.04
- enzyme activity, Lymphs (lymphocytes [1]; P71 ac. pyelonephritis): 0.05
- enzyme activity, Grans (granulocytes [2]; J4 11/21/91 acute leuk.): 0.22
- enzyme activity, Grans (granulocytes [2]; J4 12/2/91 A L): 0.44
- enzyme activity, Grans (granulocytes [2]; J4 12/3/91 acute leuk.): 0.19
- enzyme activity, Grans (granulocytes [2]; J22 12/2/91 A M L): 0.10
- enzyme activity, Grans (granulocytes [2]; J22 12/9/91 A M L): 0.24
- enzyme activity, Grans (granulocytes [2]; N191 normal): 0.19
- enzyme activity, Grans (granulocytes [2]; N192 normal): 0.15
- enzyme activity, Grans (granulocytes [2]; N193 normal): 0.14
- enzyme activity, Grans (granulocytes [2]; N194 normal): 0.07
- enzyme activity, Grans (granulocytes [2]; N195 normal): 0.21
- enzyme activity, Grans (granulocytes [2]; N197 normal): 0.24
- enzyme activity, Grans (granulocytes [2]; N199 normal): 0.05
- enzyme activity, Grans (granulocytes [2]; N200 normal): 0.06
- enzyme activity, Grans (granulocytes [2]; N201 normal): 0.09
- enzyme activity, Grans (granulocytes [2]; N202 normal): 0.08
- enzyme activity, Grans (granulocytes [2]; N206 normal): 0.27
- enzyme activity, Grans (granulocytes [2]; P68 tachycardia): 0.33
- enzyme activity, Grans (granulocytes [2]; P69 pancreatic CA): 0.37
- enzyme activity, Grans (granulocytes [2]; P70 cirrhosis/hemobilia): 0.19
- enzyme activity, Grans (granulocytes [2]; P71 ac. pyelonephritis): 0.51
- aberrant enzyme activity, LYMPHS (lymphocytes [3]; P92 Adenitis): .smallcircle.
- aberrant enzyme activity, LYMPHS (lymphocytes [3]; P97 Pyelonephritis): .smallcircle.
- aberrant enzyme activity, LYMPHS (lymphocytes [3]; P103 Viral Syndrome): .smallcircle.
- aberrant enzyme activity, MONOS (monocytes; P92 Adenitis): .smallcircle.
- aberrant enzyme activity, MONOS (monocytes; P97 Pyelonephritis): .smallcircle.
- aberrant enzyme activity, GRANS (granulocytes [4]; P97 Pyelonephritis): .smallcircle.

Compound: C[C@@H](O)[C@H](N)C(=O)N1CCC[C@H]1C(=O)Nc1ccc2c(c1)Oc1cc(NC(=O)[C@@H]3CCCN3C(=O)[C@@H](N)[C@@H](C)O)ccc1C21OC(=O)c2ccccc21 [TP, (H-L-Thr--Pro)2 Rho 110 .2TFA]
- enzyme activity, Lymphs (lymphocytes [1]; J4 11/21/91 acute leuk.): 2.30
- enzyme activity, Lymphs (lymphocytes [1]; J4 12/2/91 A L): 1.46
- enzyme activity, Lymphs (lymphocytes [1]; J4 12/3/91 acute leuk.): 1.18
- enzyme activity, Lymphs (lymphocytes [1]; J5 11/27/91 A M L): 1.32
- enzyme activity, Lymphs (lymphocytes [1]; J19 11/27/91 C L L): 0.50
- enzyme activity, Lymphs (lymphocytes [1]; J22 12/2/91 A M L): 0.99
- enzyme activity, Lymphs (lymphocytes [1]; J22 12/9/91 A M L): 1.02
- enzyme activity, Lymphs (lymphocytes [1]; N191 normal): 2.14
- enzyme activity, Lymphs (lymphocytes [1]; N192 normal): 2.12
- enzyme activity, Lymphs (lymphocytes [1]; N193 normal): 2.33
- enzyme activity, Lymphs (lymphocytes [1]; N194 normal): 1.82
- enzyme activity, Lymphs (lymphocytes [1]; N195 normal): 1.90
- enzyme activity, Lymphs (lymphocytes [1]; N197 normal): 1.96
- enzyme activity, Lymphs (lymphocytes [1]; N199 normal): 1.86
- enzyme activity, Lymphs (lymphocytes [1]; N200 normal): 2.39
- enzyme activity, Lymphs (lymphocytes [1]; N201 normal): 1.88
- enzyme activity, Lymphs (lymphocytes [1]; N202 normal): 2.49
- enzyme activity, Lymphs (lymphocytes [1]; N206 normal): 2.89
- enzyme activity, Lymphs (lymphocytes [1]; P68 tachycardia): 1.90
- enzyme activity, Lymphs (lymphocytes [1]; P69 pancreatic CA): 2.26
- enzyme activity, Lymphs (lymphocytes [1]; P70 cirrhosis/hemobilia): 1.89
- enzyme activity, Lymphs (lymphocytes [1]; P71 ac. pyelonephritis): 1.86
- enzyme activity, Grans (granulocytes [2]; J4 11/21/91 acute leuk.): 5.96
- enzyme activity, Grans (granulocytes [2]; J4 12/2/91 A L): 2.59
- enzyme activity, Grans (granulocytes [2]; J4 12/3/91 acute leuk.): 1.93
- enzyme activity, Grans (granulocytes [2]; J5 11/27/91 A M L): 2.72
- enzyme activity, Grans (granulocytes [2]; J19 11/27/91 C L L): 2.95
- enzyme activity, Grans (granulocytes [2]; J22 12/2/91 A M L): 2.33
- enzyme activity, Grans (granulocytes [2]; J22 12/9/91 A M L): 2.51
- enzyme activity, Grans (granulocytes [2]; N191 normal): 4.73
- enzyme activity, Grans (granulocytes [2]; N192 normal): 4.62
- enzyme activity, Grans (granulocytes [2]; N193 normal): 4.96
- enzyme activity, Grans (granulocytes [2]; N194 normal): 3.77
- enzyme activity, Grans (granulocytes [2]; N195 normal): 3.74
- enzyme activity, Grans (granulocytes [2]; N197 normal): 3.82
- enzyme activity, Grans (granulocytes [2]; N199 normal): 3.71
- enzyme activity, Grans (granulocytes [2]; N200 normal): 4.69
- enzyme activity, Grans (granulocytes [2]; N201 normal): 4.23
- enzyme activity, Grans (granulocytes [2]; N202 normal): 4.44
- enzyme activity, Grans (granulocytes [2]; N206 normal): 5.98
- enzyme activity, Grans (granulocytes [2]; P68 tachycardia): 5.63
- enzyme activity, Grans (granulocytes [2]; P69 pancreatic CA): 4.21
- enzyme activity, Grans (granulocytes [2]; P70 cirrhosis/hemobilia): 4.02
- enzyme activity, Grans (granulocytes [2]; P71 ac. pyelonephritis): 4.37

Compound: dichlorofluorescein [reference compound]
- aberrant enzyme activity, LYMPHS (lymphocytes [3]; P88 Enteritis): .smallcircle.
- aberrant enzyme activity, LYMPHS (lymphocytes [3]; P89 Viral Stomatitis): + (>0.25 Increase over normal range)
- aberrant enzyme activity, LYMPHS (lymphocytes [3]; P92 Adenitis): + (>0.25 Increase over normal range)
- aberrant enzyme activity, LYMPHS (lymphocytes [3]; P95 Viral Syndrome): + (>0.25 Increase over normal range)
- aberrant enzyme activity, LYMPHS (lymphocytes [3]; P96 Viral Syndrome): + (>0.25 Increase over normal range)
- aberrant enzyme activity, LYMPHS (lymphocytes [3]; P97 Pyelonephritis): + (>0.25 Increase over normal range)
- aberrant enzyme activity, LYMPHS (lymphocytes [3]; P99 Viral Syndrome): .smallcircle.
- aberrant enzyme activity, LYMPHS (lymphocytes [3]; P101 Fever -- Unknown Origin): + (>0.25 Increase over normal range)
- aberrant enzyme activity, LYMPHS (lymphocytes [3]; P102 UTI): .smallcircle.
- aberrant enzyme activity, LYMPHS (lymphocytes [3]; P103 Viral Syndrome): + (>0.25 Increase over normal range)
- aberrant enzyme activity, MONOS (monocytes; P88 Enteritis): .smallcircle.
- aberrant enzyme activity, MONOS (monocytes; P89 Viral Stomatitis): + (>0.25 Increase over normal range)
- aberrant enzyme activity, MONOS (monocytes; P92 Adenitis): + (>0.25 Increase over normal range)
- aberrant enzyme activity, MONOS (monocytes; P95 Viral Syndrome): + (>0.25 Increase over normal range)
- aberrant enzyme activity, MONOS (monocytes; P96 Viral Syndrome): + (>0.25 Increase over normal range)
- aberrant enzyme activity, MONOS (monocytes; P97 Pyelonephritis): + (>0.25 Increase over normal range)
- aberrant enzyme activity, MONOS (monocytes; P99 Viral Syndrome): .smallcircle.
- aberrant enzyme activity, MONOS (monocytes; P101 Fever -- Unknown Origin): + (>0.25 Increase over normal range)
- aberrant enzyme activity, MONOS (monocytes; P102 UTI): .smallcircle.
- aberrant enzyme activity, MONOS (monocytes; P103 Viral Syndrome): + (>0.25 Increase over normal range)
- aberrant enzyme activity, GRANS (granulocytes [4]; P88 Enteritis): .smallcircle.
- aberrant enzyme activity, GRANS (granulocytes [4]; P89 Viral Stomatitis): + (>0.25 Increase over normal range)
- aberrant enzyme activity, GRANS (granulocytes [4]; P92 Adenitis): + (>0.25 Increase over normal range)
- aberrant enzyme activity, GRANS (granulocytes [4]; P95 Viral Syndrome): + (>0.25 Increase over normal range)
- aberrant enzyme activity, GRANS (granulocytes [4]; P96 Viral Syndrome): + (>0.25 Increase over normal range)
- aberrant enzyme activity, GRANS (granulocytes [4]; P97 Pyelonephritis): + (>0.25 Increase over normal range)
- aberrant enzyme activity, GRANS (granulocytes [4]; P99 Viral Syndrome): .smallcircle.
- aberrant enzyme activity, GRANS (granulocytes [4]; P101 Fever -- Unknown Origin): + (>0.25 Increase over normal range)
- aberrant enzyme activity, GRANS (granulocytes [4]; P102 UTI): .smallcircle.
- aberrant enzyme activity, GRANS (granulocytes [4]; P103 Viral Syndrome): + (>0.25 Increase over normal range)
